Measured values as given in publication PMC5733478, “A Non-imaging High Throughput Approach to Chemical Library Screening at the Unmodified Adenosine-A3 Receptor in Living Cells” (Frontiers in Pharmacology, 2017).
Where a name gives a salt, the structure may show the parent alone. Read-outs that look alike come from different tables or passages of the source. Where a SMILES comes first, the peptide text is derived from it. The star is where a group is joined. Cbz = O=C(OCc1ccccc1)*

Target: T1, human A3AR (Homo sapiens, UniProt P0DMS8)
T1 construct: expressed in transfected cells
T1 sequence (P0DMS8 1-318): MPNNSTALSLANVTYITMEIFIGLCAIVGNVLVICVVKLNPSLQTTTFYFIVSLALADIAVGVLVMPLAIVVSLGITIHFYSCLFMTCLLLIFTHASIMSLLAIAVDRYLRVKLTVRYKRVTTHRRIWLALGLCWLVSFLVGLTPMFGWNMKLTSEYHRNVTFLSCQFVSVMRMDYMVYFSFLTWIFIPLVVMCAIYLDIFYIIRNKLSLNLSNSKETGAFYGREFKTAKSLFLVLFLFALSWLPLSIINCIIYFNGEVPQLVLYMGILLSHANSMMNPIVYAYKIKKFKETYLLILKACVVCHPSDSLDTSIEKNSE
Experiment: LOPAC library primary screen: single concentration (10 μM) inhibition of 25 nM CA200645 binding, PHERAstar FS

[1] = compounds tested at 10 µM, % of control wells (1% DMSO and 25 nM CA200645), whole live cells expressing the A3AR, mean ± SD, three experiments in duplicate
[2] = % of control wells (1% DMSO and 25 nM CA200645), compounds at 10 µM, whole live cells expressing the A3AR, mean ± SD, three experiments in duplicate

| Compound | % 25 nM CA200645 binding [%] | further results |
| --- | --- | --- |
| Br.C=CCN1CCc2c(cc(O)c(O)c2Br)[C@@H](c2ccccc2)C1 [R(+)-6-Bromo-APB hydrobromide] | 77.8 ± 20.1 |  |
| C[N+](C)(C)CC#CCOC(=O)Nc1cccc(Cl)c1.[Cl-] [McN-A-343] | 93.8 ± 10.4 |  |
| NCCCCN=C(N)N [Agmatine sulfate] | 97.6 ± 11.6 |  |
| NS(=O)(=O)Cc1noc2ccccc12 [Zonisamide sodium] | 98.6 ± 10.8 |  |
| Cn1c(=O)c2c(nc(/C=C/c3cccc(Cl)c3)n2C)n(C)c1=O [CSC, reference compound] |  | hit in LOPAC primary screen (inhibited the binding of CA200645 by >40%) (10 μM compound, 25 nM CA200645, A3AR CHO cells): not identified as hits |
| O=C(Nc1ccccc1)c1cc([N+](=O)[O-])ccc1Cl [GW9662] | 114.5 ± 11.5 |  |
| O=C(CCCN1CCC(O)(c2cccc(C(F)(F)F)c2)CC1)c1ccc(F)cc1 [Trifluperidol hydrochloride] | 102.8 ± 9.3 |  |
| NCCCP(=O)(O)O [3-Aminopropylphosphonic acid] | 90.0 ± 2.1 |  |
| Clc1cnc(Oc2ccc(Oc3ncc(Cl)cc3Cl)cc2)c(Cl)c1 [TCPOBOP] | 93.7 ± 8.4 |  |
| CC(C)NC[C@H](O)COc1cccc2ccccc12 [(S)-Propranolol hydrochloride] | 100.2 ± 8.9 |  |
| COc1cccc2c1[C@@H]1CN(CCCCn3c(=O)[nH]c4c(sc5ncc(-c6ccccc6)nc54)c3=O)C[C@@H]1CO2 [Fiduxosin hydrochloride] |  | % 25 nM CA200645 binding [1]: 92.6 ± 13.4% |
| COc1nc(C)nc(Cl)c1NC1=NCCN1.Cl [Moxonidine hydrochloride] | 99.1 ± 3.2 |  |
| CCCCCCCC/C=C\CCCCCCCC(=O)NCc1ccc(O)c(OC)c1 [Olvanil] | 76.7 ± 2.8 |  |
| COc1ccccc1N1CCNCC1.Cl | 114.8 ± 8.3 |  |
| Cl.N[C@@H](CCC(=O)O)C(=O)O [L-Glutamic acid hydrochloride] | 113.0 ± 19.3 |  |
| COc1cc(NS(C)(=O)=O)ccc1Nc1c2ccccc2nc2ccccc12 [Amsacrine hydrochloride] | 99.8 ± 8.3 |  |
| CC(C)[C@H](NC(=O)OCc1ccccc1)C(=O)N[C@H](C=O)Cc1ccccc1 [MDL 28170] (Cbz-Val-Phe-aldehyde) | 96.0 ± 2.8 |  |
| O=c1c(O)c(-c2ccc(O)cc2O)oc2cc(O)cc(O)c12 [Morin] | 72.1 ± 9.6 |  |
| O=C(O)c1ccccc1Nc1cccc(OCc2ccc3ccccc3n2)c1 [SR 2640] |  | % 25 nM CA200645 binding [1]: 103.1 ± 17.1% |
| COC1=C(OC)C(=O)c2ccccc2C1=O [2,3-Dimethoxy-1,4-naphthoquinone] | 99.3 ± 8.8 |  |
| C[N+](C)(C)CCOC(N)=O [Carbachol] | 103.1 ± 3.5 |  |
| Cl.Nc1cc(Cl)c(N=C2NCCN2)c(Cl)c1 [p-Aminoclonidine hydrochloride] | 89.0 ± 23.3 |  |
| COc1cc2c(CCNC(C)=O)c[nH]c2cc1O [6-Hydroxymelatonin] | 94.1 ± 9.8 |  |
| O=C(O)/C=C\C(=O)O.O=[N+]([O-])c1ccc2nc(N3CCNCC3)ccc2c1 [Quipazine, 6-nitro-, maleate] | 100.0 ± 4.7 |  |

| Compound | % 25 nM CA200645 binding [%] | further results |
| --- | --- | --- |
| COC(=O)C(C)(N)Cc1ccc(O)cc1.Cl (racemic) | 108.9 ± 8.2 |  |
| c1ccc(C2CN3CCSC3=N2)cc1 (centres unmarked) [Tetramisole hydrochloride] | 95.5 ± 22.8 |  |
| CC(C)[C@H]1CN[C@H](C(=O)O)[C@H]1CC(=O)O [Dihydrokainic acid] | 92.4 ± 30.0 |  |
| (±)-Ibuprofen | 91.4 ± 12.3 |  |
| Nc1ncnc2c1ncn2[C@@H]1O[C@H](CO)[C@@H](O)[C@H]1O [adenosine] |  | % 25 nM CA200645 binding [1]: 92.3 ± 7.9% |
| Fc1ccc(C(c2ccc(F)cc2)N2CCN(C/C=C/c3ccccc3)CC2)cc1 [Flunarizine dihydrochloride] | 102.1 ± 8.8 |  |
| Cl.N[C@@H](Cc1cnc[nH]1)C(=O)O [L-Histidine hydrochloride] | 100.4 ± 6.4 |  |
| O=C1NC(=O)/C(=C\c2ccc3nccnc3c2)S1 [AS605240] | 83.4 ± 13.4 |  |
| CNCC(O)c1ccc(O)c(O)c1.Cl (racemic) [(±)-Epinephrine hydrochloride] | 95.7 ± 7.0 |  |
| Cl.OCc1c[nH]cn1 [4-Imidazolemethanol hydrochloride] | 101.5 ± 8.2 |  |
| CCN(CC)CCCCCCCCOC(=O)c1cc(OC)c(OC)c(OC)c1.Cl [TMB-8 hydrochloride] | 95.0 ± 0.4 |  |
| C=C/C(C)=C/[C@@]1(C)SC(=O)C(C)=C1O [Thiolactomycin] |  | % 25 nM CA200645 binding [2]: 98.5 ± 7.2% |
| N[C@H](CCCP(=O)(O)O)C(=O)O [D(-)-2-Amino-5-phosphonopentanoic acid] |  | % 25 nM CA200645 binding [1]: 109.4 ± 11.9% |
| COC(=O)Nc1nc2ccc(C(=O)c3cccs3)cc2[nH]1 [Nocodazole] | 79.0 ± 5.7 |  |
| O=c1[nH]c2ccccc2n1CCCN1CCC(n2c(=O)[nH]c3cc(Cl)ccc32)CC1 [Domperidone] | 99.6 ± 10.5 |  |
| O=[N+]([O-])c1ccc(CNc2nc(NCc3cccc(C(F)(F)F)c3)nc3nc[nH]c23)cc1 [TNP] | 61.8 ± 11.7 |  |
| Cc1cc(C(C)(C)C)cc(C)c1CC1=NCCN1 [Xylometazoline hydrochloride] | 106.7 ± 10.4 |  |
| OC[C@H]1NC[C@@H](O)[C@@H]1O [1,4-Dideoxy-1,4-imino-D-arabinitol] | 90.0 ± 6.2 |  |
| COC[C@H]1OC(=O)c2coc3c2[C@@]1(C)C1=C(C3=O)[C@@H]2CCC(=O)[C@@]2(C)C[C@H]1OC(C)=O [Wortmannin from Penicillium funiculosum] | 82.6 ± 17.7 |  |
| CC(O)(CS(=O)(=O)c1ccc(F)cc1)C(=O)Nc1ccc(C#N)c(C(F)(F)F)c1 (centres unmarked) [Bicalutamide (CDX)] | 96.9 ± 5.3 |  |
| COc1cc(OC)c(C=C2C(O)=Nc3ccccc32)c(OC)c1 [IC 261] | 88.8 ± 5.2 |  |
| Nc1c[n+](N2CCOCC2)no1.[Cl-] [3-Morpholinosydnonimine hydrochloride] | 114.0 ± 15.4 |  |
| O=c1c(O)c(-c2cc(O)c(O)c(O)c2)oc2cc(O)cc(O)c12 [Myricetin] | 62.7 ± 9.0 |  |
| CCN(CC)CCNC(=O)c1ccc(NS(C)(=O)=O)cc1.Cl.O [Sematilide monohydrochloride monohydrate] | 97.5 ± 2.4 |  |

| Compound | % 25 nM CA200645 binding [%] | further results |
| --- | --- | --- |
| Clc1ccc2c(c1)C(N1CCNCC1)=Nc1ccccc1O2 [Amoxapine] | 102.6 ± 1.7 |  |
| COc1ccc(CCN(C)CCCC(C#N)(c2cc(OC)c(OC)c(OC)c2)C(C)C)cc1OC.Cl (racemic) [(±)-Methoxyverapamil hydrochloride] | 97.3 ± 10.6 |  |
| Cc1ccc(O)c(N=Nc2ccccc2)n1 [SIB 1757] | 98.5 ± 4.5 |  |
| NC1CCN(O)C1=O (racemic) [(±)-HA-966] | 96.6 ± 6.4 |  |
| Cn1c(=O)c2[nH]c(C3CCCC3)nc2n(C)c1=O [8-Cyclopentyl-1,3-dimethylxanthine] | 96.1 ± 9.6 |  |
| CCc1cncnc1N1CCN(Cc2nc3ccc(C(F)(F)F)cc3[nH]2)CC1 [PF-4708671] | 99.2 ± 13.5 |  |
| CC(C)(C)NCC(O)c1cc(O)cc(O)c1.CC(C)(C)NCC(O)c1cc(O)cc(O)c1.O=S(=O)(O)O (centres unmarked) [Terbutaline hemisulfate] | 102.8 ± 10.1 |  |
| C[C@H](O)[C@H](O)[C@H]1CNc2nc(N)[nH]c(=O)c2N1.Cl | 101.6 ± 17.7 |  |
| CC(=O)/C=C1\C(=O)N(C)c2ccccc21 [Supercinnamaldehyde] | 98.9 ± 0.6 |  |
| CN(C)CC[C@@H](c1ccc(Br)cc1)c1ccccn1 [(+)-Brompheniramine maleate] | 97.2 ± 7.4 |  |
| Br.Cc1cccc(C2CN(C)CCc3c2cc(O)c(O)c3Cl)c1 (centres unmarked) [SKF 83959 hydrobromide] | 97.9 ± 6.2 |  |
| O=C(O)[C@@H]1CCN1 [L-azetidine-2-carboxylic acid] | 100.7 ± 4.1 |  |
| Cc1c2ccncc2c(C)c2c1[nH]c1ccccc12 [Ellipticine] | 78.2 ± 23.8 |  |
| CCCN(CC1CC1)c1nc(C)nc(Nc2c(Cl)cc(Cl)cc2Cl)c1Cl [NBI 27914] | 89.7 ± 7.0 |  |
| CCc1cccc(N(C)C(N)=Nc2cccc3ccccc23)c1 [CNS-1102] | 102.3 ± 11.4 |  |
| Cc1nc(N=Nc2ccc(C(=O)O)cc2)c(COP(=O)(O)O)c(C=O)c1O [MRS 2159] | 83.0 ± 11.6 |  |
| C/C=C(/C)C(=O)O[C@H]1C(C)=C2[C@H]([C@@H]1OC(=O)CCCCCCC)[C@@](C)(OC(C)=O)C[C@H](OC(=O)CCC)[C@@]1(O)[C@H]2OC(=O)[C@@]1(C)O [Thapsigargin] | 65.1 ± 10.7 |  |
| O=C1Cc2cc(CCN3CCN(c4nsc5ccccc45)CC3)c(Cl)cc2N1 [Ziprasidone hydrochloride monohydrate] | 84.7 ± 3.4 |  |
| CC1(C)NC(=O)N(c2ccc([N+](=O)[O-])c(C(F)(F)F)c2)C1=O [Nilutamide] | 98.7 ± 10.0 |  |
| CC(C)COCC(CN(Cc1ccccc1)c1ccccc1)N1CCCC1 (centres unmarked) [Bepridil hydrochloride] | 101.8 ± 6.3 |  |
| COc1ccc(C2CNC(=O)C2)cc1OC1CCCC1 (centres unmarked) [Rolipram] |  | % 25 nM CA200645 binding [2]: 98.7 ± 10.9% |
| CN[C@H](CC(=O)O)C(=O)O [N-Methyl-D-aspartic acid] | 109.5 ± 4.3 |  |
| COc1ccc(NC=O)c(C(=O)CCNC(C)=O)c1 [AFMK] | 100.0 ± 2.7 |  |
